# Results published in patent US20250011368A1, “DLL3 TARGETING PEPTIDES AND CONSTRUCTS THEREOF” (MARIANA ONCOLOGY INC., priority 2023, published 2025).
# Bridge positions count the residues as written; N and C are the ends. Square brackets hold non-standard residues; d marks the D form. Peptide text beside a SMILES is read from it. * marks the point of attachment. ξ: configuration not given here. X2 = O=C(O)CN1CCN(CC(=O)O)CCN(CC(=O)NCCOCCOCCOCCOCCOCCOCCOCCOCC(=O)*)CCN(CC(=O)O)CC1; X4 = O=C(O)CN1CCN(CC(=O)O)CCN(CC(=O)N[C@H]2CC[C@H](CC(=O)*)CC2)CCN(CC(=O)O)CC1; DOTA = O=C(O)CN1CCN(CC(=O)O)CCN(CC(=O)*)CCN(CC(=O)O)CC1; Trp(5-OMe) = COc1ccc2[nH]cc(C[C@H](N)C(=O)O)c2c1; Trp(7-aza) = N[C@@H](Cc1c[nH]c2ncccc12)C(=O)O; 1Nal = N[C@@H](Cc1cccc2ccccc12)C(=O)O; 2Nal = N[C@@H](Cc1ccc2ccccc2c1)C(=O)O; ξW = NC(Cc1c[nH]c2ccccc12)C(=O)O; Octanoyl = CCCCCCCC(=O)*; Dab = NCC[C@H](N)C(=O)O; Hexanoyl = CCCCCC(=O)*; ξC = NC(CS)C(=O)O
# Target: T1, human DLL3 (Homo sapiens, UniProt Q9NYJ7)
# T1 sequence (Q9NYJ7 27-618): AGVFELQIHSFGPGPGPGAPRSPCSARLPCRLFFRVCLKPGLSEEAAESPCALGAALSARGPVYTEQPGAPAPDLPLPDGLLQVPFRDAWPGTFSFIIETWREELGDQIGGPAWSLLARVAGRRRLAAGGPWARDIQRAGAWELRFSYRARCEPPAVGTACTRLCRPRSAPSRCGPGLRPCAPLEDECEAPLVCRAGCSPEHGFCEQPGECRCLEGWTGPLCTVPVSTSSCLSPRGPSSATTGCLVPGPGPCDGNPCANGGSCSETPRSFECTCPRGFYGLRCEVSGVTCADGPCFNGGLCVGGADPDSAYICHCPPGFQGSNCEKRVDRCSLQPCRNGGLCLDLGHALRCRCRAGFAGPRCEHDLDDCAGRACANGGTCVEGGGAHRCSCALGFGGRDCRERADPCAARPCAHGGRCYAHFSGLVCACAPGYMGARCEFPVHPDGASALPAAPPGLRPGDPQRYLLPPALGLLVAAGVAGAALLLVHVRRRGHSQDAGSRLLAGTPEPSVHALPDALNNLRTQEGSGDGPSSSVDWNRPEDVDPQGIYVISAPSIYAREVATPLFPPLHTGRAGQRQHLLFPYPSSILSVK
# Test: Affinity determination by Surface Plasmon Resonance (SPR)
# Type: binding
# Conditions: 25° C., biotinylated human DLL3 immobilized on streptavidin sensor chip, 1:1 binding model; read-out: SPR KD
# Protocol: SPR studies were performed on the compounds disclosed herein using the following protocol.
# Biotinylated target ligand human DLL3 was immobilized on a streptavidin sensor chip. A reference surface was set up for nonspecific binding and refractive index changes. For analysis of the kinetics of interactions, varying concentrations of samples were injected at a flow rate of 100 μL/minute using running buffer containing 20 mM phosphate buffer with 2.7 mM KCl, 137 mM NaCl, 0.05% Surfactant P20 and 2% DMSO. Sensorgram curves were fitted with 1:1 binding model, and affinity and kinetic parameters were obtained using Biacore Insight evaluation 4.0. software.
row,Structure (SMILES),Kd [nM]
1,"CC[C@H](C)[C@H](NC(=O)[C@@H](NC(=O)[C@H](Cc1c[nH]c2ccccc12)NC(C)=O)[C@@H](C)O)C(=O)N[C@H]1CSSC[C@@H](C(=O)N[C@@H](Cc2c[nH]c3ccccc23)C(=O)N2CCC[C@H]2C(=O)N[C@H](CCCCNC(=O)CN2CCN(CC(=O)O)CCN(CC(=O)O)CCN(CC(=O)O)CC2)C(N)=O)NC(=O)[C@H](CC(=O)O)NC(=O)[C@H](Cc2cnc[nH]2)NC(=O)[C@H](Cc2cccc3ccccc23)NC(=O)[C@H](CC(N)=O)NC(=O)[C@H](CC(N)=O)NC1=O [compound 74, Ac-W-T-I-C(3)-N-N-(1Nal)-H-D-C(3)-W-P-[D-Lys(DOTA)]-NH2] (Ac-WTICNN[1Nal]HDCWP[dK](DOTA)-NH2; disulfide 4-10)",1 to 10
2,"CC[C@H](C)[C@H](NC(=O)[C@@H](NC(=O)[C@H](Cc1c[nH]c2ccccc12)NC(C)=O)[C@@H](C)O)C(=O)N[C@H]1CSSC[C@@H](C(=O)N[C@@H](Cc2cccc3ccccc23)C(=O)N2CCC[C@H]2C(=O)N[C@H](CCCCNC(=O)CN2CCN(CC(=O)O)CCN(CC(=O)O)CCN(CC(=O)O)CC2)C(N)=O)NC(=O)[C@H](CC(=O)O)NC(=O)[C@H](Cc2cnc[nH]2)NC(=O)[C@H](Cc2c[nH]c3ccccc23)NC(=O)[C@H](CC(N)=O)NC(=O)[C@H](CC(N)=O)NC1=O [compound 76, Ac-W-T-I-C(3)-N-N-W-H-D-C(3)-(1Nal)-P-[D-Lys(DOTA)]-NH2] (Ac-WTICNNWHDC[1Nal]P[dK](DOTA)-NH2; disulfide 4-10)",1 to 10
3,"CC[C@H](C)[C@H](NC(=O)[C@@H](NC(=O)[C@H](Cc1c[nH]c2ccccc12)NC(C)=O)[C@@H](C)O)C(=O)N[C@H]1CSSC[C@@H](C(=O)N[C@@H](Cc2ccc3ccccc3c2)C(=O)N2CCC[C@H]2C(=O)N[C@H](CCCCNC(=O)CN2CCN(CC(=O)O)CCN(CC(=O)O)CCN(CC(=O)O)CC2)C(N)=O)NC(=O)[C@H](CC(=O)O)NC(=O)[C@H](Cc2cnc[nH]2)NC(=O)[C@H](Cc2c[nH]c3ccccc23)NC(=O)[C@H](CC(N)=O)NC(=O)[C@H](CC(N)=O)NC1=O [compound 77, Ac-W-T-I-C(3)-N-N-W-H-D-C(3)-(2Nal)-P-[D-Lys(DOTA)]-NH2] (Ac-WTICNNWHDC[2Nal]P[dK](DOTA)-NH2; disulfide 4-10)",10 to 100
4,"CC[C@H](C)[C@H](NC(=O)[C@@H](NC(=O)[C@H](Cc1c[nH]c2ccccc12)NC(C)=O)[C@@H](C)O)C(=O)N[C@H]1CSSC[C@@H](C(=O)NC(Cc2c[nH]c3ccccc23)C(=O)N2CCC[C@H]2C(=O)N[C@H](CCCCNC(=O)COCCOCCOCCOCCOCCOCCOCCOCCNC(=O)CN2CCN(CC(=O)O)CCN(CC(=O)O)CCN(CC(=O)O)CC2)C(N)=O)NC(=O)[C@H](CC(=O)O)NC(=O)[C@H](Cc2cnc[nH]2)NC(=O)[C@H](Cc2c[nH]c3ccccc23)NC(=O)[C@H](CC(N)=O)NC(=O)[C@H](CC(N)=O)NC1=O (stereo partly drawn) [compound 89, Ac-W-T-I-C(3)-N-N-W-H-D-C(3)-W-P-(D-Lys)-PEG8-DOTA-NH2] (Ac-WTICNNWHDC[ξW]P[dK](X2)-NH2; disulfide 4-10)",1 to 10
5,"CCCCCC(=O)NCC[C@@H]1NC(=O)[C@@H](NC(=O)[C@@H](NC(=O)[C@@H](NC(=O)[C@H](Cc2c[nH]c3ccccc23)NC(C)=O)[C@@H](C)O)[C@@H](C)CC)CSSC[C@@H](C(=O)N[C@@H](Cc2c[nH]c3ccccc23)C(=O)N2CCC[C@H]2C(=O)N[C@H](CCCCNC(=O)CN2CCN(CC(=O)O)CCN(CC(=O)O)CCN(CC(=O)O)CC2)C(N)=O)NC(=O)[C@H](CC(=O)O)NC(=O)[C@H](Cc2cnc[nH]2)NC(=O)[C@H](Cc2c[nH]c3ccccc23)NC(=O)[C@H](CC(N)=O)NC1=O [compound 90, Ac-W-T-I-C(3)-(DAB-4-NHCOC5H11)-N-W-H-D-C(3)-W-P-[D-Lys(DOTA)]-NH2] (Ac-WTIC[Dab](Hexanoyl)NWHDCWP[dK](DOTA)-NH2; disulfide 4-10)",10 to 100
6,"CCCCCCCC(=O)NCC[C@@H]1NC(=O)[C@@H](NC(=O)[C@@H](NC(=O)[C@@H](NC(=O)[C@H](Cc2c[nH]c3ccccc23)NC(C)=O)[C@@H](C)O)[C@@H](C)CC)CSSC[C@@H](C(=O)N[C@@H](Cc2c[nH]c3ccccc23)C(=O)N2CCC[C@H]2C(=O)N[C@H](CCCCNC(=O)CN2CCN(CC(=O)O)CCN(CC(=O)O)CCN(CC(=O)O)CC2)C(N)=O)NC(=O)[C@H](CC(=O)O)NC(=O)[C@H](Cc2cnc[nH]2)NC(=O)[C@H](Cc2c[nH]c3ccccc23)NC(=O)[C@H](CC(N)=O)NC1=O [compound 91, Ac-W-T-I-C(3)-(DAB-4-NHCOC7H15)-N-W-H-D-C(3)-W-P-[D-Lys(DOTA)]-NH2] (Ac-WTIC[Dab](Octanoyl)NWHDCWP[dK](DOTA)-NH2; disulfide 4-10)",10 to 100
7,"CCCCCC(=O)NCC[C@@H]1NC(=O)[C@H](Cc2c[nH]c3ccccc23)NC(=O)[C@H](CC(N)=O)NC(=O)[C@H](CC(N)=O)NC(=O)[C@@H](NC(=O)[C@@H](NC(=O)[C@@H](NC(=O)[C@H](Cc2c[nH]c3ccccc23)NC(C)=O)[C@@H](C)O)[C@@H](C)CC)CSSC[C@@H](C(=O)N[C@@H](Cc2c[nH]c3ccccc23)C(=O)N2CCC[C@H]2C(=O)N[C@H](CCCCNC(=O)CN2CCN(CC(=O)O)CCN(CC(=O)O)CCN(CC(=O)O)CC2)C(N)=O)NC(=O)[C@H](CC(=O)O)NC1=O [compound 92, Ac-W-T-I-C(3)-N-N-W-(DAB-4-NHCOC5H11)-D-C(3)-W-P-[D-Lys(DOTA)]-NH2] (Ac-WTICNNW[Dab](Hexanoyl)DCWP[dK](DOTA)-NH2; disulfide 4-10)",10 to 100

# Other lines, results leading:
row,Kd [nM],Structure (SMILES)
1,1 to 10,"CC[C@H](C)[C@H](NC(=O)[C@@H](NC(=O)[C@H](Cc1c[nH]c2ccccc12)NC(C)=O)[C@@H](C)O)C(=O)N[C@H]1CSSC[C@@H](C(=O)N[C@@H](Cc2c[nH]c3ccccc23)C(=O)N2CCC[C@H]2C(=O)N[C@H](CCCCNC(=O)C[C@H]2CC[C@H](NC(=O)CN3CCN(CC(=O)O)CCN(CC(=O)O)CCN(CC(=O)O)CC3)CC2)C(N)=O)NC(=O)[C@H](CC(=O)O)NC(=O)[C@H](Cc2cnc[nH]2)NC(=O)[C@H](Cc2c[nH]c3ccccc23)NC(=O)[C@H](CC(N)=O)NC(=O)[C@H](CC(N)=O)NC1=O [compound 48, Ac-W-T-I-C(3)-N-N-W-H-D-C(3)-W-P-(D-Lys)-CyHex-DOTA-NH2] (Ac-WTICNNWHDCWP[dK](X4)-NH2; disulfide 4-10)"
2,1 to 10,"CC[C@H](C)[C@H](NC(=O)[C@@H](NC(=O)[C@H](Cc1c[nH]c2ccccc12)NC(C)=O)[C@@H](C)O)C(=O)N[C@H]1CSSCC(C(=O)N[C@@H](Cc2c[nH]c3ccccc23)C(=O)N2CCC[C@H]2C(=O)N[C@H](CCCCNC(=O)CN2CCN(CC(=O)O)CCN(CC(=O)O)CCN(CC(=O)O)CC2)C(N)=O)NC(=O)[C@H](CC(=O)O)NC(=O)[C@H](Cc2cnc[nH]2)NC(=O)[C@H](Cc2c[nH]c3ncccc23)NC(=O)[C@H](CC(N)=O)NC(=O)[C@H](CC(N)=O)NC1=O (stereo partly drawn) [compound 85, Ac-W-T-I-C(3)-N-N-(7Aza-W)-H-D-C(3)-W-P-[D-Lys(DOTA)]-NH2] (Ac-WTICNN[Trp(7-aza)]HD[ξC]WP[dK](DOTA)-NH2; disulfide 4-10)"
3,10 to 100,"CC[C@H](C)[C@H](NC(=O)[C@@H](NC(=O)[C@H](Cc1c[nH]c2ccccc12)NC(C)=O)[C@@H](C)O)C(=O)N[C@H]1CSSC[C@@H](C(=O)N[C@@H](Cc2c[nH]c3ccccc23)C(=O)N2CCC[C@H]2C(=O)N[C@H](CCCCNC(=O)CN2CCN(CC(=O)O)CCN(CC(=O)O)CCN(CC(=O)O)CC2)C(N)=O)NC(=O)[C@H](CC(=O)O)NC(=O)[C@H](Cc2cnc[nH]2)NC(=O)[C@H](Cc2c[nH]c3ccc(OC)cc23)NC(=O)[C@H](CC(N)=O)NC(=O)[C@H](CC(N)=O)NC1=O [compound 86, Ac-W-T-I-C(3)-N-N-(5Ome-W)-H-D-C(3)-W-P-[D-Lys(DOTA)]-NH2] (Ac-WTICNN[Trp(5-OMe)]HDCWP[dK](DOTA)-NH2; disulfide 4-10)"
4,10 to 100,"CC[C@H](C)[C@H](NC(=O)[C@@H](NC(=O)[C@H](Cc1c[nH]c2ccccc12)NC(C)=O)[C@@H](C)O)C(=O)N[C@H]1CSSC[C@@H](C(=O)N[C@@H](Cc2c[nH]c3ncccc23)C(=O)N2CCC[C@H]2C(=O)N[C@H](CCCCNC(=O)CN2CCN(CC(=O)O)CCN(CC(=O)O)CCN(CC(=O)O)CC2)C(N)=O)NC(=O)[C@H](CC(=O)O)NC(=O)[C@H](Cc2cnc[nH]2)NC(=O)[C@H](Cc2c[nH]c3ccccc23)NC(=O)[C@H](CC(N)=O)NC(=O)[C@H](CC(N)=O)NC1=O [compound 87, Ac-W-T-I-C(3)-N-N-W-H-D-C(3)-(7Aza-W)-P-[D-Lys(DOTA)]-NH2] (Ac-WTICNNWHDC[Trp(7-aza)]P[dK](DOTA)-NH2; disulfide 4-10)"
5,100 to 300,"CC[C@H](C)[C@H](NC(=O)[C@@H](NC(=O)[C@H](Cc1c[nH]c2ccccc12)NC(C)=O)[C@@H](C)O)C(=O)N[C@H]1CSSC[C@@H](C(=O)N[C@@H](Cc2c[nH]c3ccc(OC)cc23)C(=O)N2CCC[C@H]2C(=O)N[C@H](CCCCNC(=O)CN2CCN(CC(=O)O)CCN(CC(=O)O)CCN(CC(=O)O)CC2)C(N)=O)NC(=O)[C@H](CC(=O)O)NC(=O)[C@H](Cc2cnc[nH]2)NC(=O)[C@H](Cc2c[nH]c3ccccc23)NC(=O)[C@H](CC(N)=O)NC(=O)[C@H](CC(N)=O)NC1=O [compound 88, Ac-W-T-I-C(3)-N-N-W-H-D-C(3)-(5Ome-W)-P-[D-Lys(DOTA)]-NH2] (Ac-WTICNNWHDC[Trp(5-OMe)]P[dK](DOTA)-NH2; disulfide 4-10)"
